Tests used:
[1] = Lipophilicity, logD of compound in octanol-water at pH 7.4 by reverse phase HPLC analysis; assay type: physicochemical
[2] = Lipophilicity, logD of compound in octanol-water at pH 7.4 by shake-flask method; assay type: physicochemical
[3] = Oral bioavailability in C57 BL/6 or CD-1 mouse at 1 mg/kg measured upto 24 hrs by LC-MS/MS analysis; assay type: ADME, organism-based; settings: in vivo

SMILES | logD ([1]; read-out: logD) | logD ([2]; read-out: logD) | bioavailability [3] | logD [2] | logD [1]
CC1(C)[C@H](NC(=O)c2ccc(N3CCN(CC4CCN(c5ccc6c(c5)C(=O)N(C5CCC(=O)NC5=O)C6=O)CC4)CC3)cc2)C(C)(C)[C@H]1Oc1ccc(C#N)c(Cl)c1 (stereo not given in full) | 6.2 | 4.6 | 61.4% | – | –
Cc1ncsc1-c1ccc(CNC(=O)[C@@H]2C[C@@H](O)CN2C(=O)[C@@H](NC(=O)COCCOCCOCCNC(=O)C[C@@H]2N=C(c3ccc(Cl)cc3)c3c(sc(C)c3C)-n3c(C)nnc32)C(C)(C)C)cc1 | 3.4 | – | 0.16% | 3.8 | –
COC(=O)N[C@H](C(=O)N[C@@H](Cc1ccccc1)[C@@H](O)CN(Cc1ccc(-c2ccccn2)cc1)NC(=O)[C@@H](NC(=O)OC)C(C)(C)C)C(C)(C)C [ATAZANAVIR] | – | – | – | – | 4.2
Cc1nc(CCC(=O)NCCCCC(=O)N[C@H](C(=O)N2C[C@H](O)C[C@H]2C(=O)NCc2ccc(-c3scnc3C)cc2)C(C)(C)C)ccc1-c1cnc(NCc2c(Cl)ccc3c2CCO3)n2cnnc12 | 2.5 | 3.8 | 0% | – | –
Cc1ncsc1-c1ccc([C@H](C)NC(=O)[C@@H]2C[C@@H](O)CN2C(=O)[C@@H](NC(=O)CCCCCC(=O)N2CCN(CC[C@H](CSc3ccccc3)Nc3ccc(S(=O)(=O)NC(=O)c4ccc(N5CCN(CC6=C(c7ccc(Cl)cc7)CCC(C)(C)C6)CC5)cc4)cc3S(=O)(=O)C(F)(F)F)CC2)C(C)(C)C)cc1 [DT-2216] | 7.3 | 3.9 | 0.07% | – | –
CC(=O)CC(c1ccccc1)c1c(O)c2ccccc2oc1=O (stereo not given) [WARFARIN] | 0.78 | – | – | – | –
Cc1ncsc1-c1ccc(CNC(=O)[C@@H]2C[C@@H](O)CN2C(=O)[C@@H](NC(=O)C2(F)CC2)C(C)(C)C)c(OCCOc2ccc(CN3CCN(c4cc(-c5ccccc5O)nnc4N)CC3)cc2)c1 | 4.2 | 3.1 | 2.7% | – | –
C=CCc1ccccc1OCC(O)CNC(C)C (stereo not given) [ALPRENOLOL] | 1.5 | – | – | – | –
COc1cc(O[C@H]2C(C)(C)[C@H](NC(=O)c3ccc(N4CCC(CN5CCN(c6ccc(C(=O)N[C@H]7CCC(=O)NC7=O)c(F)c6)CC5)CC4)cc3)C2(C)C)ccc1C#N [LUXDEGALUTAMIDE] | 5 | 3.7 | 57.6% | – | –
Cn1c(=O)n(C2CCC(=O)NC2=O)c2cccc(C#CCOC3CCN(C[C@H]4CC[C@H](n5cc(NC(=O)c6cnn7ccc(N8C[C@H]9C[C@@H]8CO9)nc67)c(C(F)F)n5)CC4)CC3)c21 (stereo not given in full) [KT-474] | – | 3.5 | 23.7% | – | 2.4
CN(C)CCC=C1c2ccccc2C=Cc2ccccc21 [CYCLOBENZAPRINE] | 3.1 | – | – | – | –
O=C1CC[C@H](N2Cc3cc(N4CCN(CC5CCN(c6ccc([C@@H]7c8ccc(O)cc8CC[C@@H]7c7ccccc7)cc6)CC5)CC4)ccc3C2=O)C(=O)N1 [VEPDEGESTRANT] | – | 4.6 | 58.5% | – | 5.7

Results, then the molecule that gave them:

logD ([1]; read-out: logD) | logD ([2]; read-out: logD) | bioavailability [3] | logD [2] | logD [1] | SMILES
4.5 | – | – | – | – | CC(C)(C)NC(=O)[C@@H]1C[C@@H]2CCCC[C@@H]2CN1C[C@@H](O)[C@H](Cc1ccccc1)NC(=O)[C@H](CC(N)=O)NC(=O)c1ccc2ccccc2n1
7.9 | – | – | – | – | CC1(C)CCC(CN2CCN(c3ccc(C(=O)NS(=O)(=O)c4ccc(NCC5CCOCC5)c([N+](=O)[O-])c4)c(Oc4cnc5[nH]ccc5c4)c3)CC2)=C(c2ccc(Cl)cc2)C1 [VENETOCLAX]
5 | – | – | – | – | COC(=O)C1=C(C)NC(C)=C(C(=O)OCCN(C)Cc2ccccc2)C1c1cccc([N+](=O)[O-])c1 (stereo not given) [NICARDIPINE]
– | – | – | – | 5.2 | CCOC(=O)C1=C(C)NC(C)=C(C(=O)OC)C1c1cccc(Cl)c1Cl (stereo not given) [FELODIPINE]
5 | 4.8 | 64.6% | – | – | N#Cc1ccc(O[C@H]2CC[C@H](NC(=O)c3ccc(N4CCC(CN5CCN(c6cc7c(cc6F)C(=O)N(C6CCC(=O)NC6=O)C7=O)CC5)CC4)nn3)CC2)cc1Cl (stereo not given in full) [BAVDEGALUTAMIDE]

Reference: ChEMBL document CHEMBL6127126, “Closing the Design-Make-Test-Analyze Loop: Interplay between Experiments and Predictions Drives PROTACs Bioavailability” (J Med Chem, 2024)
